Experiments:
HeLa cells = test: Co-transfection of ubiquilin-1 cDNA with GFP-Htt Exon 1 Q74 construct in HeLa cells; type: cell-based
Description: FIG. 9. […] Immunoblots showing GFP-immunoreactivity after biochemical fractionation of parallel sets of HeLa cells transfected with the constructs described in (A) into Triton-X100 soluble and pellet fractions. • D. Densitometric quantification of anti-GFP immunoreactive bands depicting the relative amount of GFP-irnmunoreaction found in the pellet compared to that the total (soluble and pellet fractions combined).
HeLa cells were grown in DME supplemented with 10% FBS. Cells were transiently transfected with plasmid DNA using by calcium phosphate coprecipitation. Stable HeLa cell lines were isolated by cotransfection of EGFP expression constructs with a pNeo plasmid and selection with G418. Stable cell lines were identified by GFP-fluorescence.
Cell death was monitored either through examination of the nuclear morphology observed after Hoechst 33342 (1 μg/ml) staining, or through detecting the membrane selective permeability following 3 μM of propidium iodide (PI) staining. Terminal deoxynucleotidyl Transferase Biotin-dUTP Nick End Labeling (TUNEL) staining was performed with DeadEnd Colorimetric TUNEL staining kits purchased from Promega. For detecting caspase-3 activation, two methods were used. Cell lysates were separated by SDS-PAGE and probed with an antibody against the cleaved substrate for caspase-3. Alternatively, caspase activity was also detected by flurogenic techniques by incubating the cell lysates with a flurogenic caspase-3 substrate, AC-DEVD-AMC in a 96-well plate. After incubation, the cleaved free AMC was scanned by a fluorescence multi-well plate reader (SOSTmax, Sunnyvale, CA) with an excitation at 380 nm (excitation) and emission at 460 nm (emission).
Having established that expression of GFP-tagged Htt-Exon1-polyglutamine fusion proteins in HeLa cells caused a polyglutamine-number dependent increase in intracellular inclusion formation, Triton-X100 insolubility, and cell death, it was necessary to examined what effect overexpression of ubiquilin-1 has on these properties. […]

PS2 NTF = test: Cycloheximide time course of PS2 fragment production in PS2 inducible cells with or without UBQLN1 transfection; type: cell-based, human
Description: (A) Time course experiment using ponA-induced PS2 cell line cultures transfected with or without UBQLN1 expression plasmids were treated with […] cycloheximide for 0-6 hours. Equal amounts of protein lysate were separated by 8.5% SDS-PAGE and subsequently immunoblotted with anti-UBQLN antibody. Transfected cells reveal a 4-fold increase in UBQLN1 levels. Next, the protein lysates were immunoblotted using anti-PS2 NH,-terminal antibody to detect FL and NTF PS2 levels, as indicated. Note both FL PS2 turnover and NTF production levels in transfected versus untransfected cell lysates.
(B) Same experiment as (A) except FL PS expression was not induced using PonA.
(C) Graphs showing relative levels of PS2 polypeptides in PS2 inducible cell lysates after densitometric analysis of the immunoreactive bands shown in panels A and B. The levels were calculated by normalization of the signals relative to that in Lane 1. The Microsoft Excel program was used to produce a best-fit line for each graph. […] However, this is completely opposite of NTF levels. UBQLN not only decreases NTF levels at every time-point in the experiment, but it also slows the rate of NTF production, as determined by measuring the slope of each line.
HeLa and HEK293 cells were grown in DMEM supplemented with 10% FBS. PS1 and S2 inducible cell lines were generated by transfection of the pERV-expressing HEK293 cell line (Stratgene, IaIolla, Calif.) with FL human PS2 cDNA under the control of ponasteroneA (PonA)-inducible cassette in plasmid pEGSH (Stratagene). Stable integration of the pEGSH plasmid was achieved by selection for hygromycin resistance. PS expression was induced by adding PonA (final cont. 10 pM) to the medium. For proteasome inhibition studies, cultures were treated with 40 uM MG132 (Calbiochem, San Diego, Calif.) for time periods as indicated. […]
To this end, protein synthesis was inhibited using cyclohexamide (CHX) and PS fragment production was monitored over a six-hour time period in UBQLN transfected and untransfected lysates that were either induced or uninduced for PS expression. […]

mouse cortical neurons = test: Ubiquilin-1 overexpression in mouse primary neuronal cultures transfected with GFP-HttPolyQ74; type: cell-based
Description: FIG. 10. […] Mouse cortical neurons (14 days in vitro) were transiently transfected with pEGFP (3 μg each well, a), or pEGFP-HttExon-1polyQ(74) alone (3 μg each well, b), or cotransfected with both pEGFP-HttExon-1polyQ(74) and ubiquilin-1 cDNA with the ratio indicated (3 μg of pEGFP-HttExon-1polyQ(74) plus 1.5 μg or 3 μg of ubiquilin-1 cDNA; c, d).
B. Overexpression of ubiquilin-1 reduces formation of GFP-HttPolyQ(74) inclusions in cultured mouse neurons. […] Overexpression of ubiquilin-1 reduces GFP-HttPolyQ(74)-induced cell death in cultured mouse neurons. 30 hours following transfection, the cultures were stained with both Hoechst 33342 and propidium iodide (PI) and then subjected for fluorescent microscopy analysis. PI positively stained cells were treated as dead cells and only the green (GFP-positive) cells were included in the cell death analysis. Results are mean±SD.
Next it was investigated whether the modulation of polyglutamine aggregation and toxicity by ubiquilin-1 overexpression is manifested in neuronal cells, which might be more relevant in terms of controlling neurodegeneration in HD and related disorders. […] The insolubility of the Htt protein was not measured in these cells due difficulties in preparing reliable soluble and insoluble material from neurons and because of a limitation in the number for cells required for the assay.

UBQLN1: PS-interacting protein ubiquilin-1, overexpressed in cells from a cDNA expression plasmid
GFP-HttPolyQ74 fusion protein accumulation (HeLa cells; anti-GFP immunoblot): dose-dependent increase in accumulation
Triton-X100 solubility of GFP-HttPolyQ74 fusion protein (HeLa cells; biochemical fractionation): a greater proportion of the GFP-HttPolyQ74-fusion protein remained soluble
cell death (HeLa cells; increasing amounts of ubiquilin-1 cDNA vs GFP-Htt Exon-1PolyQ74 alone): dose-dependent decrease in cell death
rate of PS2 NTF production (PS2 NTF; PS induced and uninduced cells treated with CHX): slows the rate of PS2 NTF production
UBQLN1 overexpression level in transfected lysates (PS2 NTF; transfected vs untransfected, UBQLN immunoblot): 4 fold
inclusion formation (mouse cortical neurons): decreased inclusion formation
neuronal cell death (mouse cortical neurons): decreased GFP-HttPolyQ74-induced neuronal cell death

Reference: US20110166206A1, “UBIQUILIN REGULATION OF PRESENILIN ENDOPROTEOLYSIS, AND SUPPRESSION OF POLYGLUTAMINE-INDUCED TOXICITY IN CELLS” (UNIVERSITY OF MARYLAND BIOTECHNOLOGY INSTITUTE, priority 2005, published 2011)
